From patent US20240092741A1, “COMPOSITION FOR PREVENTION OR TREATMENT OF NEUROFIBROMATOSIS TYPE 2 SYNDROME” (PRG S&TECH INC., priority 2021, published 2024)

Tests used:
RKIP = assay: Immunoblotting of transfected wild-type and mutant RKIP; type: cell-based; conditions: 10 μM, 24 h (FIG. 8E)
Description: pCMV RKIP-HA was provided by Keum G (David Geffen School of Medicine at University of California, Los Angeles, CA, USA). pCMV RKIP-T101A-HA and pCMV RKIP-T101D-HA were generated by Dr. J. H. Hwang (Pusan National University). pcDNA3 NF2-FLAG, pRK5 TGF beta type 1 receptor-FLAG, and TGF beta type 2 receptor-HA were obtained from Addgene (Cambridge, MA, USA). Transfection was performed using the Jetpei transfection agent (Polyplus New York, USA) for mammalian expression of these vectors.
In other words, cells were seeded at a density of 2×10^5 cells/well in 12-well plates and cultured overnight before transfection. The vector (1.5 μg) was mixed with 1.5 μl of Jetpei reagent dissolved in 150 mM NaCl solution. The mixture was reacted at room temperature for 15 minutes, and then added to the cells. After 3 hours, the serum-free medium 15 was replaced with medium supplemented with 10% FBS.
Cells were harvested and lysed using RIPA buffer [50 mM Tris-Cl, pH 7.5, 150 mM NaCl, 1% NP-40, 0.1% SDS, and 10% sodium deoxycholate] to examine cellular signaling. Protein concentrations in samples were measured using Bio-Rad (Hercules, CA, USA) protein assay kits and BSA standards. […] The blots were detected using an HRP-conjugated secondary antibody using ECL kit (Intron, Seoul, Korea).

TGF-β signaling [1] = assay: Smad2/3 phosphorylation after TGF-β1 in HEI-193 cells; type: cell-based, human; conditions: 10 μM, TGF-β1 1 ng/ml (FIGS. 16A, 16B)
Description: (§1) Cells were harvested and lysed using RIPA buffer [50 mM Tris-Cl, pH 7.5, 150 mM NaCl, 1% NP-40, 0.1% SDS, and 10% sodium deoxycholate] to examine cellular signaling. Protein concentrations in samples were measured using Bio-Rad (Hercules, CA, USA) protein assay kits and BSA standards. The samples (20 μg protein per lane) were separated by sodium dodecyl sulfate-polyacrylamide gel electrophoresis (SDS-PAGE), transferred to Immobilon-P^SQ transfer membranes (Millipore Corp., MA, USA), which were then cultured with 3% skim milk-containing TBS-T buffer (Tris-HCl-based buffer containing 20 mM Tris pH 7.6, 150 mM NaCl, and 0.05% Tween 20) for 1 hour at room temperature and then reacted with primary antibody in TBS-T overnight at 4° C. The membranes were then washed and reacted with secondary horseradish peroxidase (HRP)-conjugated antibodies [goat anti-mouse, goat anti-rabbit, and mouse anti-goat antibodies (Pierce, Thermo Fisher Scientific, Inc., Rockford, IL, USA)] in TBS-T at room temperature for 2 hours. The blots were detected using an HRP-conjugated secondary antibody using ECL kit (Intron, Seoul, Korea).

HEI-193 cells [2] = assay: Western blotting of marker proteins in HEI-193 cells; type: cell-based, human; conditions: HEI-193 cells
Description: as §1

TGF-β signaling [3] = assay: 3TP-luciferase assay in HEI-193 cells; type: cell-based, human; conditions: high concentrations, TGF-β1 2 ng/ml (FIG. 8D)
Description: To estimate the transcriptional activity of TGF-β signaling, 3TP-Luc vectors were transfected into cells for 24 hours, and the cells were treated with the indicated chemicals. After washing with wash buffer (Promega, Wisconsin, USA), the cells were lysed using lysis buffer (Promega, Wisconsin, USA). Luciferase activity was measured using a luminometer (MicroDigital, Gyeonggi-do, Korea).

[4] = target: T1, interaction between TβR1 and RKIP (Homo sapiens, UniProt P30086+P36897); assay: GST-pull down assay of TβR1-RKIP interaction; type: binding
T1 construct: host or cells: HEK293 (TβR1 lysate)
Description: (§2) For protein-protein interaction analysis, glutathione S-transferase (GST)-pull down assay was performed. For GST-pull down, agarose-bead-conjugated GST-RKIP recombinant protein was reacted with FLAG-tagged TβR1-transfected HEK 293 cell lysates in PBS buffer at 4° C. for 1 hour. Immunoprecipitation (IP) assay was performed by reacting with FLAG-tagged TβR1- or HA-tagged RKIP-transfected HEI-193 cell lysates in PBS buffer. Whole lysates were reacted with appropriate primary antibodies at 4° C. for 2 hours and with agarose-bead-conjugated protein A/G (Invitrogen, Carlsbad, CA, USA) for 2 hours. After centrifugation, the precipitates were washed twice with RIPA buffer and subjected to SDS-PAGE and western blotting analysis.
T1 sequence (P30086 whole entry, one chain of several): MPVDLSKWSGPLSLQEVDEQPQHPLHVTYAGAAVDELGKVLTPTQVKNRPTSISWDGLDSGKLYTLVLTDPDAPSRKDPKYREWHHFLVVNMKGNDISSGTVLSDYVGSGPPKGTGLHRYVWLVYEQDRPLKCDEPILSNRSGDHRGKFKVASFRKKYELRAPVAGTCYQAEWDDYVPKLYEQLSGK

[5] = target: T2, interaction between TβR1 and RKIP (Homo sapiens, UniProt P30086+P36897); assay: Immunoprecipitation of TβR1-RKIP interaction in transfected HEI-193 cells; type: cell-based; conditions: FLAG-TβR1- or HA-RKIP-transfected HEI-193 cells, indicated concentrations, 6 h (FIGS. 8A, 9A)
T2 construct: host or cells: HEI-193
T2 sequence (P36897 34-503): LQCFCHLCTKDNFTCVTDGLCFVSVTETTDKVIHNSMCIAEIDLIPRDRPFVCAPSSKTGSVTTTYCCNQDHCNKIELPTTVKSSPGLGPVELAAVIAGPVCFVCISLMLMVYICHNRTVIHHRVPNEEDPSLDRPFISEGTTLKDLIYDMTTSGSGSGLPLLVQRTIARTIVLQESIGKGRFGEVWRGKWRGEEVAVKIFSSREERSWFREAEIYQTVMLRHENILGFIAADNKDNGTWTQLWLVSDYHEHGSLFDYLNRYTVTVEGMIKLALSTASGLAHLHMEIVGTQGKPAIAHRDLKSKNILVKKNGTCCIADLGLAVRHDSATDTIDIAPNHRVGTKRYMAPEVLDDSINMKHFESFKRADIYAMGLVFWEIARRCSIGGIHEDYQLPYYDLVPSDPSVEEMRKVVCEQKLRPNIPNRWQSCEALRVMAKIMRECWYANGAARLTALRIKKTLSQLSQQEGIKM
T2 sequence (P30086 2-187 limits assumed): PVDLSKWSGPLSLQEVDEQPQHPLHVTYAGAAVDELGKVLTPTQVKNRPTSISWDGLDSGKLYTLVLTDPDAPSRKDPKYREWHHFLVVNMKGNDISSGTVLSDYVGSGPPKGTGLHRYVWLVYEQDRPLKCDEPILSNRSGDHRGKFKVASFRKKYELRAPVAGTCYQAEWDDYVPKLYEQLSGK
Description: as §2

HEI-193 cells [6] = assay: Cell proliferation (cell counting) in HEI-193 cells; type: cell-based, human; conditions: 10 μM, indicated time (FIG. 12B)
Description: Cell growth curves were analyzed by seeding 2×10^4 cells/well into a 6-well plate. After the indicated day, the cells were trypsinized and dissociated into single cells. A minimum of 10,000 cells were counted using an Attune NxT flow cytometer (Thermo Fisher Scientific, Inc., Rockford, IL, USA).

CCN(CC)CCOc1ccc(-c2nnn(Cc3ccc(OC)cc3)c2N)cc1 [PRG-N-01, 4-(4-(2-(diethylamino)ethoxy)phenyl)-1-(4-methoxybenzyl)-1H-1,2,3-triazol-5-amino]
wild-type RKIP expression (RKIP; HEI-193 and mouse schwannoma cells transfected with WT RKIP): induced wild-type RKIP expression
expression of RKIP mutants (T101A stable form, T101D unstable form) (RKIP; HEI-193 and mouse schwannoma cells transfected with mutants): did not alter the expression
duration of Smad 2/3 phosphorylation (canonical TGF-β signaling) (TGF-β signaling [1]): prolonged
expression of other stem cell factors (c-Myc, Nanog, Oct4) (HEI-193 cells [2]; 4 days, Western blot (FIG. 14A)): not altered
expression of SOX2 (stem cell marker) at the protein level (HEI-193 cells [2]; Western blot (FIG. 12E)): reduced
TGF-β signaling (3TP-luciferase activity) (TGF-β signaling [3]): did not inhibit TGF-β signaling even at high concentrations
interaction between TβR1 and RKIP at low concentrations ([4]; GST pull-down, low concentrations (FIG. 6B)): showed an inhibitory effect even at low concentrations
interaction between TβR1 and RKIP ([4]; GST-RKIP beads with TβR1-transfected HEK293 lysates, 5 and 10 μM, 2 h (FIG. 5B)): inhibited the interaction between TβR1 and RKIP in a dose-dependent manner
binding between TβR1 and RKIP (IP) [5]: interrupted the binding in a dose-dependent manner
cell growth (cell count) (HEI-193 cells [6]): completely inhibited cell growth
